Data from patent publication US9034922B2, “Composition for maintaining function of platelets” (THE UNIVERSITY OF TOKYO, priority 2010, dated 2015).

Experiments:
[1] = target: T1, Matrix metalloproteinase 1 (MMP-1) (Homo sapiens, UniProt P03956); assay: Enzyme inhibition experiment, MMP-1; assay type: biochemical; conditions: 444221 substrate, 37° C., 5 hours
T1 construct: purchased Calbiochem 444208
T1 sequence (P03956 100-469): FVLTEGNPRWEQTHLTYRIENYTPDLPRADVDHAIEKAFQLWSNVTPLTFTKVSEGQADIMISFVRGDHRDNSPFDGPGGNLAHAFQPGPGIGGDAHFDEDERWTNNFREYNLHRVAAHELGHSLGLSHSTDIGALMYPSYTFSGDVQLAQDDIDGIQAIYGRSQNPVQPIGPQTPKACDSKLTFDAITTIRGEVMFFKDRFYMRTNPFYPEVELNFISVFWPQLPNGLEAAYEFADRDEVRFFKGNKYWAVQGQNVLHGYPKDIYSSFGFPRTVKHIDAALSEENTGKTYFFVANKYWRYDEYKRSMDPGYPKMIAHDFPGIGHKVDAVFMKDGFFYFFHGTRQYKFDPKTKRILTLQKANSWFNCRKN
Method: (§1) The enzyme reaction was carried out using the enzymes and substrates. Specifically, if necessary, the enzyme was activated in advance with APMA (final concentration 1 mmol/L, p-aminophenylmercuric acetate, manufactured by Sigma-Aldrich Co., A9563) according to information from the manufacturer. Then, in a 96-well plate for fluorescence measurement, 90 μL of an enzyme solution prepared with Assay Buffer A (50 mmol/L Tris-HCl buffer (pH 7.5) containing 200 mmol/L sodium chloride, 5 mmol/L calcium chloride, 10 μmol/L zinc sulfate, and 2 mg/mL bovine serum albumin) was mixed with 90 μL of the substrate adjusted to be 20 μmol/L with Assay Buffer B (50 mmol/L Tris-HCl buffer (pH 7.5) containing 200 mmol/L sodium chloride, 5 mmol/L calcium chloride, 10 μmol/L zinc sulfate, and 0.05% PLURONIC F-68), and incubated for reaction at 25° C. or 37° C. for several hours. Moreover, the fluorescence intensities before and after the reaction were measured using a fluorometer to determine the enzyme activity. An inhibition rate was obtained based on the enzyme activities in the presence and absence of the test substances, and the 50% inhibitory concentration (IC50) was calculated.

[2] = system: ES cell-derived platelets (ADAM17-mediated GPIbα shedding); assay: Function-maintaining effect on ES cell-derived platelets in culture system (flow cytometry CD41/CD42b, platelet count)
Method: As human ES cells (hES cells), a KhES cell line (KhES-3) established by and provided from Institute for Frontier Medical Sciences, Kyoto University was used.
The human ES cells or the human iPS cells were seeded on the feeder cells such that the cell count was 5×10^4 to 1×10^5/10-cm dish. The cells were cultured in Iscove's Modified Dulbecco's Medium (IMDM, manufactured by Invitrogen Corp/GIBCO) supplemented with 15% FBS (product name: CELLect™ GOLD, manufactured by ICN Biomedicals Inc.), 2 mM L-glut amine (manufactured by Invitrogen Corp.), ITS supplement (10 μg/ml insulin, 5.5 mg/ml human transferrin, 5 ng/ml sodium selenite) (manufactured by Sigma-Aldrich Co.), 50 μg/ml ascorbic acid (Sigma-Aldrich Co.), 0.45 mM α-monothioglycerol (MTG, manufactured by Sigma-Aldrich Co.), and 20 ng/ml vascular endothelial growth factor (VEGF, manufactured by R&D Systems, Inc.). Further, this culturing was carried out at 37° C. in 5% CO2 and 21% O2 (atmospheric oxygen) using a CO2 incubator (product name: HERA CELL 150i, manufactured by Thermo Fisher Scientific K. K.). Then, the medium was replaced every 3 days, and the culturing was continued under the conditions until Day 15 when a large number of sac structures (sac-like structures) containing hematopoietic progenitor cells therein were observed.
Next, after detached from the dish, the sac structures were disrupted and suspended in a 3% FBS-containing phosphate buffer solution (PBS). Then, the suspension was passed through a 40-μm cell strainer (manufactured by BD). The solution thus passed through was centrifuged at 440×g for 10 minutes to collect hematopoietic progenitor cells, and the cells was counted. The hematopoietic progenitor cells were seeded on 10T1/2 cells newly prepared in a 6-well plate (6×10^5 cells/plate) exposed to 50-Gy radiation such that the number of the hematopoietic progenitor cells was 2 to 3×10^4/well. The hematopoietic progenitor cells were further cultured for 8 days in IMDM (manufactured by Invitrogen Corp/GIBCO) supplemented with 15% FBS (product name: CELLect™ GOLD, manufactured by ICN Biomedicals Inc.), 2 mM L-glutamine (manufactured by Invitrogen Corp.), ITS supplement (10 μg/ml insulin, 5.5 mg/ml transferrin, 5 ng/ml sodium selenite) (manufactured by Sigma-Aldrich Co.), 50 μg/ml ascorbic acid (manufactured by Sigma-Aldrich Co.), 0.45 mM MTG (manufactured by Sigma-Aldrich Co.), 100 ng/ml human thrombopoietin (human TPO, manufactured by PeproTech, Inc.), 50 ng/ml human stem cell factor (SCF, manufactured by PeproTech, Inc.), and 25 U/ml heparin. Thereby, megakaryocytes/platelets were induced.
Subsequently, the induced megakaryocytes/platelets were collected with an anticoagulant solution (Acid Citrate Dextrose, ACD), followed by centrifugation at 900 rpm for 10 minutes without a break. The supernatant obtained by the centrifugation was further centrifuged at 1500 rpm for 10 minutes without a break to remove the supernatant. Thereafter, the numbers of megakaryocytes and platelets in the precipitate thus obtained were analyzed by flow cytometry using antibodies for staining.
Note that, in the flow cytometry, FACS Aria manufactured by Becton, Dickinson and Company was used. As the antibodies used to stain the megakaryocytes and the platelets, used were a Phycoerythrin (PE)-modified anti-human CD42a (GPIX) antibody, a PE-modified anti-human CD42b (GPIbα) antibody, and an allophycocyanin (APC)-labelled anti-CD41a (integrin αIIbbeta3 complex, HIP8 clone) antibody (manufactured by BD Bioscience). Additionally, in order to accurately measure the absolute numbers of the megakaryocytes and the platelets, the cells were stained with these antibodies, and the analysis was conducted by flow cytometry using TruCount beads (manufactured by BD Bioscience), also.

[3] = target: T2, TACE expressed on the macrophage-like cells (THP-1) (Homo sapiens, UniProt P78536); assay: Cellular TACE inhibition experiment (LPS-induced TNF-α production in PMA-differentiated THP-1 cells); assay type: cell-based; conditions: for IC50: THP-1 macrophage-like cells, LPS 1 μg/mL, 6 hours, read-out: IC50 TNFα production
T2 construct: host or cells: THP-1 cells differentiated with PMA into macrophage-like cells
T2 sequence (P78536 215-824): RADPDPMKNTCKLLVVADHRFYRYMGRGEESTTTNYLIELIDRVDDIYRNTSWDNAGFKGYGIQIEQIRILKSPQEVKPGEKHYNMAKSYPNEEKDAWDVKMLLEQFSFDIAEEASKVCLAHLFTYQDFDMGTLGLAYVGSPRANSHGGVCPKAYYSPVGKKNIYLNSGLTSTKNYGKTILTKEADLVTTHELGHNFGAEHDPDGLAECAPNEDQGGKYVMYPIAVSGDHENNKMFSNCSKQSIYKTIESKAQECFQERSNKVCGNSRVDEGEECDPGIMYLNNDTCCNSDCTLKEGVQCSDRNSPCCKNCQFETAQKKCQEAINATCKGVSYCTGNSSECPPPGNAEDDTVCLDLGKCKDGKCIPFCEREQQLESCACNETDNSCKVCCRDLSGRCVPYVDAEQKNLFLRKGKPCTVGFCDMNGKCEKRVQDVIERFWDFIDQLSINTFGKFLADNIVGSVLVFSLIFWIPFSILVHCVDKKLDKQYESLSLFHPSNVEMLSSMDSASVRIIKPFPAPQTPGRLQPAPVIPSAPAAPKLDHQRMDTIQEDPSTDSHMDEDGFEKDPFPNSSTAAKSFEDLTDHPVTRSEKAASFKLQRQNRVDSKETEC
Method: After the differentiation, the medium was discarded, and the cells were washed with THP-1 washing buffer (RPMI 1640, 20 mM HEPES-NaOH (pH 7.4)). After the washing of the cells, a THP-1 assay buffer (RPMI 1640, 20 mmol/L HEPES-NaOH (pH 7.4), 0.01 w/v % PF-68, 10 v/v % FBS) was added thereto at 100 μL/well. Then, a THP-1 assay buffer containing the test substance (I-1 or 1-4) was further added at 50 μL/well and mixed by tapping. After incubation in a CO2 incubator for 30 to 45 minutes, a THP-1 assay buffer containing LPS was added at 50 μL/well (the final concentration of LPS was 1 μg/mL). Further, the plate was tapped for mixing, followed by incubation in the CO2 incubator for 6 hours. After the incubation was finished, human TNF-α concentration in the culture supernatant was measured with a commercially available kit (Human TNF-α CytoSet (manufactured by BIOSOURCE) or Human TNF-α Ready-Set-Go! (manufactured by eBioscience, Inc.)).

[4] = target: T3, A disintegrin and metalloproteinase 10 (ADAM10) (Homo sapiens, UniProt O14672); assay: Enzyme inhibition experiment, ADAM10; assay type: biochemical; conditions: degree somewhat low in comparison with ADAM17
T3 construct: purchased Funakoshi Co., Ltd. 936-AD-020
T3 sequence (O14672 214-672 limits assumed): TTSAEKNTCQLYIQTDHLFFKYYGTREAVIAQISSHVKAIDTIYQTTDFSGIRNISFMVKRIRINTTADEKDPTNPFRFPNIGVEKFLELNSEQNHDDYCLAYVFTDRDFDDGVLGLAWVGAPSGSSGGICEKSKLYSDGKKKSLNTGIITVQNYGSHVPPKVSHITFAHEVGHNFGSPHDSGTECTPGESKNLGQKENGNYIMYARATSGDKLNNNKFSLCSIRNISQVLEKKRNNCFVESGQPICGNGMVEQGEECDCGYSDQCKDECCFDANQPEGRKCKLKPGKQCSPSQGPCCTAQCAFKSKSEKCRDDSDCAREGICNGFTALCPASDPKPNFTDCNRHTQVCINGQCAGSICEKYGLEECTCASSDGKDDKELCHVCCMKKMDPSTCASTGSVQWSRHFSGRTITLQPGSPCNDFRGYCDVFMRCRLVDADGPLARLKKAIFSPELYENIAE
Method: A disintegrin and metalloproteinase 10 (ADAM10) (manufactured by Funakoshi Co., Ltd., product code: 936-AD-020) and
TACE substrate (the same as one used in Test Example 3): excitation wavelength at 355 nm, emission wavelength at 460 nm
as §1

SMILES | IC50 [1] [nM] | inhibitory effect on GPIbα shedding compared with 50 μM GM6001 ([2]; Test Example 5, S-45282 at 5 μM) | inhibition of ADAM17-mediated GPIbα shedding (CD42b(+) percentage) ([2]; Test Example 5, added for 2 days or 8 days, GM6001 50 μM, S-45282 5 μM or 50 μM) | number of platelets obtained ([2]; Test Example 5, added for 2 days, 50 μM GM6001, 5 μM S-45282) | inhibitory activity on TACE expressed on the macrophage-like cells (in words) [3] | IC50 [3] [nM] | suppression of ADAM10 (in words) [4] | inhibition of ADAM17-mediated GPIbα shedding ([2]; Test Example 6, 8 days, S-45457 5 μM or 50 μM, GM6001 50 μM) | toxicity to cells (total number of platelets) ([2]; Test Example 7, ES cells and differentiated cells, 1.5 to 50 μM, 8 days) | concentration dependency of inhibition of GPIbα shedding ([2]; Test Example 7, ES cells, S-45457 1.5 to 50 μM, 8 days)
CC#CCOc1ccc(S(=O)(=O)CC(c2ccc(CN(CC)CC)cc2)N(O)C=O)cc1 (centres unmarked) [Compound I-1, N-[2-(4-But-2-ynyloxybenzenesulfonyl)-1-(4-diethylaminomethylphenyl)ethyl]-N-hydroxyformamide] | > 100000 | inhibitory effect equivalent to 50 μM GM6001 | inhibit ADAM17-mediated GPIbα shedding | approximately the same | inhibitory activity was confirmed | 1200 | suppressed ADAM10 |  |  | 
CC#CCOc1ccc(S(=O)(=O)CC(c2ccc(CNS(C)(=O)=O)cc2)N(O)C=O)cc1 (centres unmarked) [Compound I-4, N-{4-[2-(4-But-2-ynyloxybenzenesulfonyl)-1-(formylhydroxyamino)ethyl]benzyl}methanesulfonamide] | > 100000 |  |  |  | inhibitory activity was confirmed | 625 | suppressed ADAM10 | inhibits ADAM17-mediated GPIbα shedding | low toxicity | inhibit ADAM17-mediated GPIbα shedding in a manner dependent on the added concentration
